For the experiment, the target named is T1, MT1.
T1 construct: gene MTNR1A; native receptors in primary ovine pinealocytes (MT1 and MT2 not resolved)
In words: saturation radioligand binding on primary ovine pinealocytes, Scatchard analysis. It is filed as cell-based, Ovis aries.

By Kd is commonly meant the equilibrium constant for the complex coming apart. The compound `COc1ccc2[nH]c(I)c(CCNC(C)=O)c2c1` [2-[^125I]-MLT] had a Kd of 2.24 ± 1.1 nM.

For the origin of these results see publication PMC8320996, “Negative regulation of melatonin secretion by melatonin receptors in ovine pinealocytes” (PLoS ONE, 2021).
